Experimental data reported in patent publication US20090143430A1, “ERYTHROPOIETIN PRODUCTION ACCELERATOR” (Kowa Co., Ltd., priority 2002, published 2009).
Where a name gives a salt, the structure may show the parent alone.

Key:
Hep3B cells [1] = experiment: EPO protein produced by Hep3B cells under hypoxia (1% O2), ELISA (Test Example 1); type: cell-based; conditions: 1% O2, 24 hrs
Method: (§1) Hep3B cells producing EPO under hypoxic condition were used. The cells were inoculated onto a 100 mm petri dish by 1.5-3.0×10^6. As a culture medium, 10 ml of Dulbecco's Modified Eagles' Medium (DMEM)/10% Fetal Calf Serum (FCS) was used. The next day, the culture medium was exchanged, and compound of Preparation Example 13 (final concentration: 100 nM) was added, then cells were cultured under 1% O2 at 37° C. for 24 hrs. Groups were prepared in which IL-1β (final concentration: 15 U/ml) or TNF-α (final concentration: 220 U/ml), of which EPO production suppressing action is known (Faquin W C, Schneider T J, Goldgerg M A, Blood, 79(8): 1987-94 (1992)), were used solely or in combination with compound of Preparation Example 13 (final concentration: 100 nM). […] The amount of EPO in the supernatant obtained after the culture was measured by ELISA (each group; n=3). The enhancer site and promoter site (144 bp) of a human EPO gene were linked to luciferase reporter vector, which was used for measuring the EPO promoter activity. The EPO promoter activity was evaluated as follows.
(§2) The data obtained were analyzed and evaluated by Student's t-test.

human EPO promoter = experiment: EPO promoter activity, luciferase reporter in Hep3B cells, 1% O2 vs 21% O2 (Test Example 1); type: cell-based; conditions: 24 hrs
Method: as §1
1×10^6 Hep3B cells were inoculated on 30 mm petri dish (4 mL:DMEM/10% FCS), and a reporter gene (2 μg) as well as P-galactosidase gene (1 μg) as an internal standard were transfected into the cells by the lipofectin method. The next day, the culture medium was exchanged and the groups, whose group-composition was similar to the above (control group (containing no agents), IL-1β group (final concentration: 15 U/ml), TNF-α (final concentration: 220 U/ml), compound of Preparation Example 13 (final concentration: 100 nM), or a combination of compound of Preparation Example 13 and IL-1β or TNF-α) were cultured under 1% O2 or 21% O2 (as a control) at 37° C. for 24 hrs (for each group; n=4). The extract of the cells after cultured were prepared, then luciferase activity and β galactosidase activity were measured. The EPO promoter activity was expressed by the formula: […]
as §2

Hep3B cells [2] = experiment: EPO produced in Hep3B cell culture medium under 1% oxygen, ELISA kit (Test Example 2); type: cell-based; conditions: 24 hrs, 100 nM, control 8.1
Method: Hep3B cells were inoculated by 1×10^6 on each of 6 cm dishes, and then cultured for 24 hrs. As a culture medium, 3 mL of DMEM/10% FCS was used. The culture medium was exchanged and the compounds of each of Preparation Examples 13, 23, 29, 36, and 114 were added such that the content thereof was 100 nM final concentration, and they were transferred into the atmosphere of 1% oxygen at 37° C. for further 24 hrs culture thereof. The supernatant of the culture was recovered, and the amount of EPO was measured by ELISA kit (product of Roche Diagnostics) (two cases in each group). Further, cell extract was prepared and protein amount was determined, and corrected it as production amount per protein amount. As a control, groups not containing the compounds are prepared.

anemia model mice = experiment: In vivo mice anemia model with IL-1β or TNF-α suppressed EPO production (Test Example 3); design: species or system mouse
Method: ICR mice (available from CLEA Japan Inc.) were made to be anemia by taking blood samples by 0.3 mL at a time from the orbital vein of the mouse by use of a heparin-coated microcapillary by 4 times in every 12 hours from 2 days before administering the agents. Further, 1.67×10^4 unit/day of mouse IL-1β (Roche Diagnostics) or 3.33×10^5 unit/day of mouse TNF-α (Roche Diagnostics) was injected intraperitoneally on day 0-3 (the first day of administration of agents was defined as […]) to induce a suppressed condition of EPO production. To these mice, Preparation Example 13 compound dissolved in 50% polyethylene glycol solution was administered orally by 1 or 3 mg/kg/day on day 0-5. As a control, 50% polyethylene glycol solution was administered (each group; n=7-15). On day 3 and 6, 0.3 mL of blood was collected, and hematocrit (Ht) value, hemoglobin (Hb) concentration (Celltac a: NIHON KOHDEN), EPO amount (ELISA kit: Roche Diagnostics) were measured. Also, the blood was stained by methylene-blue, and smears were prepared to calculate Reticulocytes value.

[3] = day 3, IL-1β mice, compound 1 mg/kg/day
[4] = day 3, IL-1β mice, compound 3 mg/kg/day
[5] = day 3, IL-1β mice, compound oral 1 mg/kg/day
[6] = day 3, IL-1β mice, compound oral 3 mg/kg/day
[7] = day 3, TNF-α mice, compound 1 mg/kg/day
[8] = day 3, TNF-α mice, compound 3 mg/kg/day
[9] = day 3, TNF-α mice, compound oral 1 mg/kg/day
[10] = day 3, TNF-α mice, compound oral 3 mg/kg/day
[11] = day 6, IL-1β mice, compound oral 1 mg/kg/day
[12] = day 6, IL-1β mice, compound oral 3 mg/kg/day
[13] = day 6, TNF-α mice, compound oral 1 mg/kg/day
[14] = day 6, TNF-α mice, compound oral 3 mg/kg/day

Molecule: COc1ccc(N(Cc2cncc(-c3cc(OC)c(OC)c(OC)c3)c2)C2CCN(Cc3ccnc(-c4cc(OC)c(OC)c(OC)c4)c3)CC2)cc1 [Preparation Example 13, 4-[N-(4-methoxyphenyl)-N-[[5-(3,4,5-trimethoxyphenyl)pyridin-3-yl]methyl]amino]1-[[2-(3,4,5-trimethoxyphenyl)pyridin-4-yl]methyl]piperidine Trihydrochloride]
- amount of the produced EPO protein relative to control (Hep3B cells [1]; compound 100 nM): twice as much as the control
- amount of the produced EPO protein (Hep3B cells [1]; compound 100 nM alone): 829.8±119.0 mU/mg protein
- amount of the produced EPO protein (Hep3B cells [1]; compound 100 nM in combination with IL-1β 15 U/ml): 395.0±72.6 mU/mg protein
- amount of the produced EPO protein (Hep3B cells [1]; compound 100 nM in combination with TNF-α 220 U/ml): 284.8±24.2 mU/mg protein
- human EPO promoter activity (HI) (human EPO promoter; compound 100 nM alone): 46.1±5.9 fold
- human EPO promoter activity (HI) (human EPO promoter; compound 100 nM with IL-1β 15 U/ml): 45.5±7.1 fold
- human EPO promoter activity (HI) (human EPO promoter; compound 100 nM with TNF-α 220 U/ml): 49.5±5.4 fold
- Increasing action of EPO production (amount of EPO per protein amount) (Hep3B cells [2]): 18.2 mU/mg Protein
- EPO amount in serum (anemia model mice; [3]): 41.8±28.3 mU/mL
- reticulocyte value (anemia model mice; [3]): 36.1±4.5%
- EPO amount in serum (anemia model mice; [4]): 58.9±21.1 mU/mL
- reticulocyte value (anemia model mice; [4]): 38.1±8.1%
- Hb amount (anemia model mice; [5]): 12.7 ± 0.7 g/dL
- Ht value (anemia model mice; [5]): 37.5±2.5%
- Hb amount (anemia model mice; [6]): 12.6 ± 1.0 g/dL
- Ht value (anemia model mice; [6]): 37.5±3.1%
- EPO amount in serum (anemia model mice; [7]): 61.4±70.4 mU/mL
- reticulocyte value (anemia model mice; [7]): 29.1±4.7%
- EPO amount in serum (anemia model mice; [8]): 64.7±92.2 mU/mL
- reticulocyte value (anemia model mice; [8]): 28.9±4.5%
- Hb amount (anemia model mice; [9]): 12.8 ± 0.6 g/dL
- Ht value (anemia model mice; [9]): 38.8±2.0%
- Hb amount (anemia model mice; [10]): 13.1 ± 0.8 g/dL
- Ht value (anemia model mice; [10]): 40.0±2.7%
- EPO amount in serum (anemia model mice; [11]): 22.2±32.8 mU/mL
- Hb amount (anemia model mice; [11]): 14.1 ± 1.1 g/dL
- Ht value (anemia model mice; [11]): 42.6±2.5%
- reticulocyte value (anemia model mice; [11]): 27.1±2.5%
- EPO amount in serum (anemia model mice; [12]): 37.1±31.1 mU/mL
- Hb amount (anemia model mice; [12]): 14.0 ± 0.9 g/dL
- Ht value (anemia model mice; [12]): 43.3±2.8%
- reticulocyte value (anemia model mice; [12]): 30.4±4.0%
- EPO amount in serum (anemia model mice; [13]): 57.4±23.9 mU/mL
- Hb amount (anemia model mice; [13]): 14.0 ± 0.6 g/dL
- Ht value (anemia model mice; [13]): 43.3±2.5%
- reticulocyte value (anemia model mice; [13]): 23.3±3.3%
- EPO amount in serum (anemia model mice; [14]): 69.9±37.8 mU/mL
- Hb amount (anemia model mice; [14]): 13.8 ± 0.5 g/dL
- Ht value (anemia model mice; [14]): 43.2±2.2%
- reticulocyte value (anemia model mice; [14]): 26.8±7.5%

Molecule: COc1cc(OC)cc(N(Cc2ccnc(-c3cc(OC)c(OC)c(OC)c3)c2)C2CCN(Cc3ccnc(-c4cc(OC)c(OC)c(OC)c4)c3)CC2)c1 [Preparation Example 23, 4-[N-(3,5-dimethoxyphenyl)-N-[[2-(3,4,5-trimethoxyphenyl)pyridin-4-yl]methyl]amino]-1-[[2-(3,4,5-trimethoxyphenyl)pyridin-4-yl]methyl]piperidine Trihydrochloride]
- Increasing action of EPO production (amount of EPO per protein amount) (Hep3B cells [2]): 13.9 mU/mg Protein

Molecule: COc1cc(-c2cc(CN3CCC(N(Cc4ccnc(-c5cc(OC)c(OC)c(OC)c5)c4)c4ccc5c(c4)OCO5)CC3)ccn2)cc(OC)c1OC [Preparation Example 29, 4-[N-(3,4-methylenedioxyphenyl)-N-[[2-(3,4,5-trimethoxyphenyl)pyridin-4-yl]methyl]amino]-1-[[2-(3,4,5-trimethoxyphenyl)pyridin-4-yl]methyl]piperidine Trihydrochloride]
- Increasing action of EPO production (amount of EPO per protein amount) (Hep3B cells [2]): 10.5 mU/mg Protein

Molecule: COc1cc(-c2cc(CN3CCC(N(C)Cc4ccnc(-c5cc(OC)c(OC)c(OC)c5)c4)CC3)ccn2)cc(OC)c1OC [Preparation Example 36, 4-[N-methyl-N-[[2-(3,4,5-trimethoxyphenyl)pyridin-4-yl]methyl]amino]-1-[[2-(3,4,5-trimethoxyphenyl)pyridin-4-yl]methyl]piperidine Tetrahydrochloride]
- Increasing action of EPO production (amount of EPO per protein amount) (Hep3B cells [2]): 10.0 mU/mg Protein

Molecule: COc1cc(-c2cncc(CN(c3ccc(SC)cc3)C3CCN(Cc4ccnc(-c5cc(OC)c(OC)c(OC)c5)c4)CC3)c2)cc(OC)c1OC [Preparation Example 114]
- Increasing action of EPO production (amount of EPO per protein amount) (Hep3B cells [2]): 14.9 mU/mg Protein

Molecule: TNF-α
- amount of the produced EPO protein (Hep3B cells [1]; TNF-α 220 U/ml alone): 180.8±24.6 mU/mg protein
- human EPO promoter activity (HI) (human EPO promoter; TNF-α 220 U/ml alone): 20.7±4.1 fold
- Hb amount (anemia model mice; day 3, TNF-α i.p. alone (control 13.8±0.6)): 12.6 ± 0.7 g/dL
- EPO amount in serum (anemia model mice; day 3, TNF-α i.p. alone (control 23.7±31.0)): 2.7±4.6 mU/mL
- reticulocyte value (anemia model mice; day 3, TNF-α i.p. alone (control 32.1±4.4)): 14.2±3.4%
- Ht value (anemia model mice; day 3, TNF-α i.p. alone (control 42.2±3.6)): 38.3±2.5%
- Hb amount (anemia model mice; day 6, TNF-α i.p. alone (control 14.8±0.8)): 13.1 ± 0.5 g/dL
- reticulocyte value (anemia model mice; day 6, TNF-α i.p. alone (control 16.3±3.1)): 9.4±3.3%
- EPO amount in serum (anemia model mice; day 6, TNF-α i.p. alone (control 24.8±33.8)): 3.3±6.0 mU/mL
- Ht value (anemia model mice; day 6, TNF-α i.p. alone (control 46.4±2.9)): 41.6±1.8%

B1: IL-1β: "IL-1β (final concentration: 15 U/ml) ... of which EPO production suppressing action is known"; "mouse IL-1β (Roche Diagnostics)" in vivo (protein, UniProt P10749 118-269, looked up)
Interleukin-1 beta: VPIRQLHYRLRDEQQKSLVLSDPYELKALHLNGQNINQQVIFSMSFVQGEPSNDKIPVALGLKGKNLYLSCVMKDGTPTLQLESVDPKQYPKKKMEKRFVFNKIEVKSKVEFESAEFPNWYISTSQAEHKPVFLGNNSGQDIIDFTMESVSS
- amount of the produced EPO protein (Hep3B cells [1]; IL-1β 15 U/ml alone): 233.3±19.4 mU/mg protein
- human EPO promoter activity (HI) (human EPO promoter; IL-1β 15 U/ml alone): 19.9±6.5 fold
- Hb amount (anemia model mice; day 3, IL-1β i.p. alone (control 13.8±0.6)): 12.3 ± 0.8 g/dL
- EPO amount in serum (anemia model mice; day 3, IL-1β i.p. alone (control 23.7±31.0)): 5.9±14.3 mU/mL
- reticulocyte value (anemia model mice; day 3, IL-1β i.p. alone (control 32.1±4.4)): 15.4±3.5%
- Ht value (anemia model mice; day 3, IL-1β i.p. alone (control 42.2±3.6)): 36.0±3.0%
- Hb amount (anemia model mice; day 6, IL-1β i.p. alone (control 14.8±0.8)): 13.5 ± 0.5 g/dL
- reticulocyte value (anemia model mice; day 6, IL-1β i.p. alone (control 16.3±3.1)): 12.2±2.0%
- EPO amount in serum (anemia model mice; day 6, IL-1β i.p. alone (control 24.8±33.8)): 2.9±5.0 mU/mL
- Ht value (anemia model mice; day 6, IL-1β i.p. alone (control 46.4±2.9)): 40.9±1.5%
